Experiment [1] concerns the target T1, human ABCB10 (Homo sapiens, UniProt Q9NRK6).
T1 sequence (Q9NRK6 152-738): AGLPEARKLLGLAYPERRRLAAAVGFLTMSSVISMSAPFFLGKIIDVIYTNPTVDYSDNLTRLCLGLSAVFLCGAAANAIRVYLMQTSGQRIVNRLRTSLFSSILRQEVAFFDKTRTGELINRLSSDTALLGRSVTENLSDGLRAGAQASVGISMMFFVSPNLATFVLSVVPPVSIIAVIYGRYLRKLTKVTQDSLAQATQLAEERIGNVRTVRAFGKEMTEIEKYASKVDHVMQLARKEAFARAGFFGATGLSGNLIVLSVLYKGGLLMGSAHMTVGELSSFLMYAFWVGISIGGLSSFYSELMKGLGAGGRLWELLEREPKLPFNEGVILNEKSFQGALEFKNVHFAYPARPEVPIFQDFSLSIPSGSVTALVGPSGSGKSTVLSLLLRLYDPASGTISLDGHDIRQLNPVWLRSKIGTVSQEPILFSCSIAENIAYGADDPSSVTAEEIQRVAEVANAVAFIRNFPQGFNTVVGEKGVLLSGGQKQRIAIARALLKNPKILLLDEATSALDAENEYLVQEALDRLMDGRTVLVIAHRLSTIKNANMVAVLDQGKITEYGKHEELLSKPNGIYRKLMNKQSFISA
The following applies: 0.3 μM protein, 0-2000 μM ATP, 5 mM MgCl2, 37 °C, no added lipid.

The target of experiment [2] is T1, human ABCB10. The experiment is described as follows: ATPase activity, malachite green phosphate assay. Type of experiment: biochemical.

In the case of `Nc1ncnc2c1ncn2[C@@H]1O[C@H](COP(=O)(O)OP(=O)(O)OP(=O)(O)O)[C@@H](O)[C@H]1O` [ATP], the KM entry at human ABCB10 [1] is on record as “Michaelis–Menten equation was fitted to the initial rates to determine the Michaelis constant (KM)”. Regarding `CCCCCCCC/C=C\CCCCCCCC(=O)OC[C@H](COP(=O)(O)OCC(O)COP(=O)(O)OC[C@@H](COC(=O)CCCCCCC/C=C\CCCCCCCC)OC(=O)CCCCCCC/C=C\CCCCCCCC)OC(=O)CCCCCCC/C=C\CCCCCCCC` (some centres unmarked) [TOCDL, 1,1′,2,2′-tetraoleoyl-cardiolipin], the IC50 (in general, the concentration that inhibits the measured activity by half) on human ABCB10 [2] is roughly 10 µM.

The record behind these values is PMC10634319 (Biochemistry, 2023).
